Values quoted from earlier work, collected in patent publication US20090092668A1, “ACETAMINOPHEN FORMULATION FOR JOINT PAIN RELIEF” (priority 2006, published 2009).

Legend:
[1] = one subject

Row | excreted as exhaled carbon dioxide (of the absorbed glucosamine) | excreted in the urine (of the absorbed glucosamine) | remaining in the tissues (of the absorbed glucosamine) | absorbed from the small intestine (sulfate form) | SMILES | pain status ([1]; ¼-½ tsp. daily for about 16 months) | pain relief ([1]; ½ tsp. daily in diet, by the end of the second week)
1 | 65% | 25% | 10% | over 90% | N[C@H]1C(O)O[C@H](CO)[C@@H](O)[C@@H]1O (stereo partly drawn) [glucosamine] | – | –
2 | – | – | – | – | CS(C)(=O)=O [MSM, Methylsulfonylmethane] | substantially pain-free life | almost total pain relief
